Reference: patent US20240018125A1, “CYCLIC ISOTHIOUREA DERIVATIVES AS CXCR4 MODULATORS” (ERMIUM THERAPEUTICS, priority 2020, published 2024)
Where a name gives a salt, the structure may show the parent alone.

What follows are compounds tested on peripheral blood mononuclear cells (PBMCs) from healthy donors (assay: IFN production by R848-activated PBMCs, quantified with twINNE luciferase reporter cell line). Conditions: Homo sapiens, PBMC; read-out: IC50 of anti-inflammatory activity (IFN production by activated PBMCs).
Type: cell-based, human
Experimental: The blood from healthy donors was obtained from “Etablissement Français du Sang” (convention #19/EFS/029), Paris, France.
In vitro experiments were performed using human peripheral blood mononuclear cells (PBMCs) isolated by density centrifugation from peripheral blood leukocyte separation medium, lymphoprep (Stemcell Technologies).
PBMCs were cultured in RPMI 1640 (Sigma-Aldrich, MO, USA) containing 10% heat-inactivated fetal bovine serum (Sigma-Aldrich, MO, USA) at 37° C./5% CO2.
The PBMCs used herein were prepared as described in part A “immune cells preparation”, above. PBMCs were seeded at 4.10^6/mL. Cells were pre-treated with different concentration of examples according to the invention. Cells were then stimulated with the TLR7/8 agonist resiquimod—R848 (Sigma-Aldrich, MO, USA) at 5 μg/mL.
To quantify the secretion of functional IFN, a biological assay based on a stable cell line where luciferase reporter gene is controlled by five Interferon-Stimulated Response Elements (twINNE cell line) was used. First, supernatants of R848-stimulated PBMCs (see part B above) were harvested after 24 h of stimulation and frozen at −20° C. for storage. Then, supernatants were dispensed in culture wells of a 96-well plate containing 35.103 twINNE cells per well in Dulbecco's Modified Eagle's Medium supplemented with 10% Foetal Bovine Serum, 100 U/mL Penicillin and 100 μg/mL Streptomycin (1% Pen-Strep) and 1 mM glutamine (Sigma-Aldrich, MO, USA) at 37° C./5% CO2. After 24 h of culture, luciferase activity was determined by adding 60 μL of Bright-Glo reagents (Promega, Wisconsin, USA) to culture wells and measuring bioluminescence with EnSpire Multimode Plate Reader (PerkinElmer, Massachusetts, USA). When stated, for IC50 calculation, dose-response curves fitted using the nonlin fit (variable slope) analysis in GraphPad Prism software (GraphPad Software, Califronia, USA).
IFN production was quantified (as specified in Materials and Methods, part C “quantification of interferon secretion”) using twINNE reporter cell line.

| Compound | IC50 |
| --- | --- |
| Fc1cccc2c1CN=C(SCC1=CSC3=NCc4ccccc4CN13)N2 [Example 23, 3-(((5-fluoro-1,4-dihydroquinazolin-2-yl)thio)methyl)-5,10-dihydrobenzo[e]thiazolo[3,2-a][1,3]diazepine dihydrochloride] | ≤ 10 µM |
| CN1CCCC1CCSC1=NCc2cc(Cl)ccc2N1 (stereo not shown) [Example 158, 6-chloro-2-((2-(1-methylpyrrolidin-2-yl)ethyl)thio)-1,4-dihydroquinazoline dihydrochloride] | ≤ 10 µM |
| c1ccc2c(c1)CN=C(SCCCN1CCCC1)NC2 [Example 194, 3-((3-(pyrrolidin-1-yl)propyl)thio)-2,5-dihydro-1H-benzo[e][1,3]diazepine dihydrochloride] | > 32 µM |
| c1ccc2c(c1)CCN=C(SCCCCN1CCCC1)N2 [Example 159, 2-((4-(pyrrolidin-1-yl)butyl)thio)-4,5-dihydro-1H-benzo[d][1,3]diazepine dihydrochloride] | 10 to 32 µM |
| CN1CC[C@H](SC2=NCCc3ccccc3N2)C1 [Example 200, (S)-2-((1-methylpyrrolidin-3-yl)thio)-4,5-dihydro-3H-benzo[d][1,3]diazepine dihydrochloride] | ≤ 10 µM |
| Clc1ccc(C2CN=C(SCC3=CSC4=NCc5ccccc5CN34)N2)cc1 (stereo not shown) [Example 22, 3-(((4-(4-chlorophenyl)-4,5-dihydro-1H-imidazol-2-yl)thio)methyl)-5,10-dihydrobenzo[e]thiazolo[3,2-a][1,3]diazepine dihydrochloride] | ≤ 10 µM |
| CC1(C)N=C(SCC2=CSC3=NCc4ccccc4CN23)Nc2ccccc21 [Example 21, 3-(((4,4-dimethyl-1,4-dihydroquinazolin-2-yl)thio)methyl)-5,10-dihydrobenzo[e]thiazolo[3,2-a][1,3]diazepine dihydrochloride] | ≤ 10 µM |
| c1ccc2c(c1)CN=C(SCCN1C[C@H]3C[C@@H]1CO3)N2 (stereo in doubt) [Example 146, (1R,4R)-5-(2-((1,4-dihydroquinazolin-2-yl)thio)ethyl)-2-oxa-5-azabicyclo[2.2.1]heptane dihydrochloride] | 10 to 32 µM |
| C1=C(CSC2=NCCc3ccccc3N2)N2CC(Cc3ccccc3)N=C2S1 (stereo not shown) [Example 88, 6-benzyl-3-(((4,5-dihydro-1H-benzo[d][1,3]diazepin-2-yl)thio)methyl)-5,6-dihydroimidazo[2,1-b]thiazole dihydrochloride] | ≤ 10 µM |
| Clc1ccc2c(c1)CN1C(CSC3=NCc4ccc(Br)cc4N3)=CSC1=N2 [Example 66, 3-(((7-bromo-1,4-dihydroquinazolin-2-yl)thio)methyl)-7-chloro-5H-thiazolo[2,3-b]quinazoline dihydrochloride] | ≤ 10 µM |
| COC1CCN(CCSC2=NCc3ccccc3N2)C1 (stereo not shown) [Example 127, 2-((2-(3-methoxypyrrolidin-1-yl)ethyl)thio)-1,4-dihydroquinazoline dihydrochloride] | ≤ 10 µM |
| c1ccc2c(c1)CCN=C(S[C@H]1CCNC1)N2 [Example 199, (S)-2-(pyrrolidin-3-ylthio)-4,5-dihydro-3H-benzo[d][1,3]diazepine dihydrochloride] | 10 to 32 µM |
| C[C@@H](CN1CCCC1)SC1=NCc2cc(Cl)ccc2N1 [Example 168, (S)-6-chloro-2-((1-(pyrrolidin-1-yl)propan-2-yl)thio)-1,4-dihydroquinazoline dihydrochloride] | 10 to 32 µM |
| Clc1ccc2c(c1)NC(SCCCCN1CCCC1)=NC2 [Example 150, 7-chloro-2-((4-(pyrrolidin-1-yl)butyl)thio)-1,4-dihydroquinazoline dihydrochloride] | ≤ 10 µM |
| OC1(CSC2=NCc3ccccc3N2)CSC2=N[C@H](c3ccccc3)[C@@H](c3ccccc3)N21 (relative stereo) [Example 17, trans-3-(((3,4-dihydroquinazolin-2-yl)thio)methyl)-5,6-diphenyl-2,3,5,6-tetrahydroimidazo[2,1-b]thiazol-3-ol dihydrochloride] | > 32 µM |
| CC1(C)N=C(SCC2=CSC3=Nc4cccc(F)c4CN23)Nc2ccccc21 [Example 73, 3-(((4,4-dimethyl-1,4-dihydroquinazolin-2-yl)thio)methyl)-6-fluoro-5H-thiazolo[2,3-b]quinazoline dihydrochloride] | > 32 µM |
| Clc1ccc2c(c1)CN1C(CSC3=NCCc4ccccc4N3)=CSC1=N2 [Example 76, 7-chloro-3-(((4,5-dihydro-1H-benzo[d][1,3]diazepin-2-yl)thio)methyl)-5H-thiazolo[2,3-b]quinazoline dihydrochloride] | 10 to 32 µM |

| Compound | IC50 |
| --- | --- |
| C1CCC2NC(SCCN3CCCC3)=NCC2C1 (stereo not shown) [Example 184, 2-((2-(pyrrolidin-1-yl)ethyl)thio)-1,4,4a,5,6,7,8,8a-octahydroquinazoline dihydrochloride] | > 32 µM |
| C1=C(CSC2=NCc3ccccc3N2)N2C(=N[C@H]3CCCC[C@@H]32)S1 (relative stereo) [Example 13, trans-3-(((3,4-dihydroquinazolin-2-yl)thio)methyl)-4a,5,6,7,8,8a-hexahydrobenzo[4,5]imidazo[2,1-b]thiazole dihydrochloride] | ≤ 10 µM |
| Cc1ccc(CC2CN3C(CSC4=NCc5ccccc5N4)=CSC3=N2)cc1 (stereo not shown) [Example 122, 3-(((1,4-dihydroquinazolin-2-yl)thio)methyl)-6-(4-methylbenzyl)-5,6-dihydroimidazo[2,1-b]thiazole dihydrochloride] | ≤ 10 µM |
| IC1=C(CSC2=NCc3ccccc3N2)N2CC(Cc3ccccc3)N=C2S1 (stereo not shown) [Example 110, 6-benzyl-3-(((1,4-dihydroquinazolin-2-yl)thio)methyl)-2-iodo-5,6-dihydroimidazo[2,1-b]thiazole dihydrochloride] | ≤ 10 µM |
| CN1CCC(SC2=NCc3ccccc3N2)C1 (stereo not shown) [Example 100, 2-((1-methylpyrrolidin-3-yl)thio)-1,4-dihydroquinazoline dihydrochloride] | ≤ 10 µM |
| Clc1ccc2c(c1)CN1C(CSC3=NCC4CCCCN34)=CSC1=N2 (stereo not shown) [Example 49, 7-chloro-3-(((1,5,6,7,8,8a-hexahydroimidazo[1,5-a]pyridin-3-yl)thio)methyl)-5H-thiazolo[2,3-b]quinazoline dihydrochloride] | ≤ 10 µM |
| CC(CCCSC1=NCc2ccccc2N1)N1CCCC1 (stereo not shown) [Example 165, 2-((4-(pyrrolidin-1-yl)pentyl)thio)-1,4-dihydroquinazoline dihydrochloride] | 10 to 32 µM |
| CC1(C)CN=C(SCCCCN2CCCC2)N1 [Example 172, 4,4-dimethyl-2-((4-(pyrrolidin-1-yl)butyl)thio)-4,5-dihydro-1H-imidazole dihydrochloride] | > 32 µM |
| CC1(C)CN=C(SCCCCN2CCCC2)NC1 [Example 179, 5,5-dimethyl-2-((4-(pyrrolidin-1-yl)butyl)thio)-1,4,5,6-tetrahydropyrimidine dihydrochloride] | > 32 µM |
| Clc1ccc2c(c1)CN1C(CSC3=NCC(Cc4cccs4)N3)=CSC1=N2 (stereo not shown) [Example 64, 7-chloro-3-(((5-(thiophen-2-ylmethyl)-4,5-dihydro-1H-imidazol-2-yl)thio)methyl)-5H-thiazolo[2,3-b]quinazoline dihydrochloride] | ≤ 10 µM |
| Fc1ccc2c(c1)CN=C(SCC1=CSC3=Nc4ccc(Cl)cc4CN13)N2 [Example 83, 7-chloro-3-(((6-fluoro-1,4-dihydroquinazolin-2-yl)thio)methyl)-5H-thiazolo[2,3-b]quinazoline dihydrochloride] | ≤ 10 µM |
| Fc1cccc2c1CN1C(CSC3=NCc4ccccc4N3)=CSC1=N2 [Example 18, 3-(((3,4-dihydroquinazolin-2-yl)thio)methyl)-6-fluoro-5H-thiazolo[2,3-b]quinazoline dihydrochloride] | ≤ 10 µM |
| c1ccc2c(c1)CN=C(SC1CCC[C@H]1N1CCCC1)N2 (stereo partly drawn) [Example 141, 2-(((2R)-2-(pyrrolidin-1-yl)cyclopentyl)thio)-1,4-dihydroquinazoline dihydrochloride] | 10 to 32 µM |
| Brc1ccc2c(c1)NC(SCC1=CSC3=NC(Cc4ccccc4)CN13)=NC2 (stereo not shown) [Example 119, 6-benzyl-3-(((7-bromo-1,4-dihydroquinazolin-2-yl)thio)methyl)-5,6-dihydroimidazo[2,1-b]thiazole dihydrochloride] | ≤ 10 µM |
| CN1CCCC1CCCSC1=NCc2cc(Cl)ccc2N1 (stereo not shown) [Example 174, 6-chloro-2-((3-(1-methylpyrrolidin-2-yl)propyl)thio)-1,4-dihydroquinazoline dihydrochloride] | ≤ 10 µM |
| C1=C(CSC2=NCc3ccccc3N2)N2Cc3ccccc3CN=C2S1 [Example 11, 3-(((3,4-dihydroquinazolin-2-yl)thio)methyl)-5,10-dihydrobenzo[e]thiazolo[3,2-a][1,3]diazepine dihydrochloride] | ≤ 10 µM |
| C(CCN1CCCC1)CSC1=NCC2(CC2)N1 [Example 185, 5-((4-(pyrrolidin-1-yl)butyl)thio)-4,6-diazaspiro[2.4]hept-5-ene dihydrochloride] | > 32 µM |
